Consider 8 compounds from PubChem BioAssay (NCI).

Some test systems named below: MDA-N; IGROV1 ovarian; NCI-H522 lung; HCC-2998 colon; CCRF-CEM leukemia; SF-295 CNS; OVCAR-5 ovarian; HOP-92 NSCLC; ACHN renal; RXF 393 renal; LOX IMVI melanoma; MCF7 breast; EKVX NSCLC; SW-620 colon; RPMI-8226 leukemia; U251 CNS; HOP-62 NSCLC; SK-MEL-2 melanoma.
What all share (test): growth of human tumour cells (NCI), 48 h

Molecules are shown by their SMILES.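 These data come from cells grown in 96-well plates and exposed to compound for 48 hours at five concentrations. TGI: concentration producing complete growth inhibition.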

In the case of `O=C1NC(=S)NC1C(Cc1ccccc1)c1ccco1` (stereo not drawn), the TGI with MDA-N, in the assay with IGROV1 ovarian, in the assay on NCI-H522 lung, with HCC-2998 colon, in the assay on CCRF-CEM leukemia and in the assay on SF-295 CNS was more than 100 µM throughout. For the same compound, the TGI with OVCAR-5 ovarian, with HOP-92 NSCLC, in the assay on ACHN renal, in the assay with RXF 393 renal, in the assay with LOX IMVI melanoma and with MCF7 breast was more than 100 µM in each case. Further, the TGI in the assay with EKVX NSCLC, in the assay on SW-620 colon, in the assay with RPMI-8226 leukemia and in the assay with U251 CNS was more than 100 µM throughout.

For the compound `CC(C)(Cl)C(Br)CCC(=CCBr)CBr` (mixture of isomers), the TGI with MDA-N was 6.13 µM; with IGROV1 ovarian, 5.56 µM; in the assay on NCI-H522 lung it was 3.19 µM; in the assay with HCC-2998 colon it was 14 µM; in the assay with CCRF-CEM leukemia, 3.49 µM; with SF-295 CNS, 11 µM. The TGI in the assay with OVCAR-5 ovarian was 26.4 µM; with HOP-92 NSCLC, 5.1 µM; in the assay on ACHN renal it was 15.6 µM; in the assay on RXF 393 renal, 15.7 µM; with HOP-62 NSCLC, 11.7 µM; with MCF7 breast it was 8.42 µM. Besides, the TGI was determined as 62 µM with EKVX NSCLC; 5.53 µM in the assay on SW-620 colon; 3.22 µM in the assay with RPMI-8226 leukemia; 22.9 µM in the assay with SK-MEL-2 melanoma; 4.09 µM in the assay on U251 CNS.

As to `CCCCN(CCCC)C1(c2cc3ccccc3s2)CCCCC1`, the TGI worked out at 31.5 µM in the assay with MDA-N; 31.2 µM in the assay on IGROV1 ovarian; 25.6 µM in the assay on NCI-H522 lung; 27.4 µM with HCC-2998 colon; 28.7 µM in the assay with CCRF-CEM leukemia; 26.8 µM with SF-295 CNS. Moreover, the TGI was found to be 32.9 µM in the assay with OVCAR-5 ovarian; 25.5 µM in the assay with HOP-92 NSCLC; 30.3 µM in the assay on ACHN renal; 30.8 µM in the assay with RXF 393 renal; 28.3 µM with LOX IMVI melanoma; 29.2 µM in the assay with HOP-62 NSCLC. Moreover, the TGI stood at 32.1 µM with MCF7 breast; 36.6 µM with EKVX NSCLC; 33.8 µM in the assay with SW-620 colon; 34.5 µM with SK-MEL-2 melanoma; 31.4 µM with U251 CNS.

As for `O=C(CC(O)(C(F)(F)Cl)C(F)(F)Cl)CC(O)(C(F)(F)Cl)C(F)(F)Cl`, the TGI with MDA-N was more than 10 µM; in the assay on IGROV1 ovarian it was more than 10 µM; with NCI-H522 lung, more than 10 µM; with HCC-2998 colon, more than 10 µM; with CCRF-CEM leukemia it was more than 10 µM; with SF-295 CNS, 9.51 µM. Moreover, the TGI was 3.04 µM in the assay with HOP-92 NSCLC; more than 10 µM in the assay with ACHN renal; 6.08 µM in the assay on RXF 393 renal; more than 10 µM with LOX IMVI melanoma; 5.11 µM in the assay on HOP-62 NSCLC; more than 10 µM with MCF7 breast. The TGI in the assay on EKVX NSCLC is 8.02 µM; with SW-620 colon, more than 10 µM; in the assay with RPMI-8226 leukemia it was 4.84 µM; in the assay with SK-MEL-2 melanoma, 3.54 µM; with U251 CNS, 7.39 µM.

As for `O=c1cc(CN2CCCCC2)[nH]c2c1ccc1nc(CN3CCCCC3)cc(=O)n12`, the TGI with MDA-N, in the assay on IGROV1 ovarian, with HCC-2998 colon, with CCRF-CEM leukemia, in the assay with SF-295 CNS and in the assay on OVCAR-5 ovarian was more than 100 µM in each case. The TGI with HOP-92 NSCLC, with ACHN renal, in the assay with RXF 393 renal, in the assay on LOX IMVI melanoma, in the assay on HOP-62 NSCLC and in the assay with MCF7 breast was more than 100 µM in each case. Moreover, the TGI in the assay with EKVX NSCLC, with SW-620 colon, in the assay on RPMI-8226 leukemia, with SK-MEL-2 melanoma and with U251 CNS was more than 100 µM in each case.

Turning to `CN1CCN(Cn2nc(-c3ccccc3)n(/N=C/c3ccc(-c4ccc(Cl)cc4Cl)o3)c2=S)CC1`, the TGI with MDA-N is more than 100 µM; with IGROV1 ovarian, 31.8 µM; in the assay on NCI-H522 lung, more than 100 µM; with HCC-2998 colon it was 26.5 µM; in the assay on CCRF-CEM leukemia it was 23.2 µM; in the assay with SF-295 CNS it was 29.9 µM. The TGI was found to be 48 µM with OVCAR-5 ovarian; 25.1 µM with HOP-92 NSCLC; 14 µM with RXF 393 renal; 46.7 µM in the assay on LOX IMVI melanoma; 30.5 µM with HOP-62 NSCLC; 38.6 µM with MCF7 breast. Also, the TGI in the assay on EKVX NSCLC is more than 100 µM; with SW-620 colon, 32.9 µM; with RPMI-8226 leukemia it was 75.6 µM; with SK-MEL-2 melanoma, 44.1 µM; with U251 CNS, 17.5 µM.

`COc1ccc(-c2c(C(C)=O)c(C)n(C3OC(COC(C)=O)C(OC(C)=O)C(OC(C)=O)C3OC(C)=O)c(=S)c2C#N)cc1` (stereo not drawn): the TGI in the assay with MDA-N, in the assay on IGROV1 ovarian, in the assay on NCI-H522 lung, in the assay with HCC-2998 colon, with CCRF-CEM leukemia and in the assay with SF-295 CNS was more than 100 µM in each case. Also, the TGI was more than 100 µM with OVCAR-5 ovarian; 84.6 µM in the assay with HOP-92 NSCLC; more than 100 µM with ACHN renal; more than 100 µM in the assay on RXF 393 renal; more than 100 µM in the assay on LOX IMVI melanoma; more than 100 µM in the assay on HOP-62 NSCLC. In addition, the TGI in the assay on MCF7 breast, in the assay with SW-620 colon, in the assay on SK-MEL-2 melanoma and in the assay with U251 CNS was more than 100 µM throughout.

In the case of `CCc1nc2c(n1CC)C(=O)c1ccccc1C2=O`, the TGI was more than 10 µM with MDA-N; more than 100 µM in the assay on IGROV1 ovarian; 96 µM with NCI-H522 lung; more than 100 µM in the assay on HCC-2998 colon; more than 100 µM in the assay with CCRF-CEM leukemia; more than 100 µM with SF-295 CNS. In addition, the TGI with OVCAR-5 ovarian was more than 100 µM; in the assay with HOP-92 NSCLC it was more than 100 µM; with ACHN renal, more than 100 µM; with RXF 393 renal, 51 µM; in the assay on HOP-62 NSCLC it was more than 100 µM; in the assay with MCF7 breast it was more than 100 µM. For the same compound, the TGI in the assay with EKVX NSCLC, in the assay with SW-620 colon, in the assay on RPMI-8226 leukemia and with U251 CNS was more than 100 µM in each case.
